What all share (parameters): scale not given: the % may be the effect or the level left
For test [1], the target named is T1, Dual specificity mitogen-activated protein kinase kinase 6 (Homo sapiens) (UniProt P52564).
T1 sequence (whole entry): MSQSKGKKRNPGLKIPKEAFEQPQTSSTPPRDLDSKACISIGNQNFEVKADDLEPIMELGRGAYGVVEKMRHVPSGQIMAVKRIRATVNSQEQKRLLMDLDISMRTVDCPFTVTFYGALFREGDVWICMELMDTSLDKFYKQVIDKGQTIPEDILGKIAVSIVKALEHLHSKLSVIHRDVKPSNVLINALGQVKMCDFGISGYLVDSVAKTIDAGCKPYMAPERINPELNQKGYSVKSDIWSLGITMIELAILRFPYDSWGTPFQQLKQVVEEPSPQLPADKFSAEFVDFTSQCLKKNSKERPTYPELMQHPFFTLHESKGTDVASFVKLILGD
As to the kind of experiment: Inhibition of human MKK6 assessed as enzyme activity at 1 uM using p38a (K53A) as substrate preincubated for 20 mins followed by [gamma-33P]-ATP addition and measured after 120 mins by radiometric Hot-SpotSM Kinase assay relative to control.

For test [2], the target named is LIM domain kinase 1 (Homo sapiens) (UniProt P53667). As to the kind of experiment: Inhibition of human LIMK1 assessed as enzyme activity at 1 uM using cofilin 1 as substrate preincubated for 20 mins followed by [gamma-33P]-ATP addition and measured after 120 mins by radiometric Hot-SpotSM Kinase assay relative to control.
Test [3] addresses Calcium/calmodulin-dependent protein kinase type 1 (Homo sapiens) (UniProt Q14012). As to the kind of experiment: Inhibition of human CAMK1a assessed as enzyme activity at 1 uM using KKALRRQETVDAL as substrate preincubated for 20 mins followed by [gamma-33P]-ATP addition and measured after 120 mins by radiometric Hot-SpotSM Kinase assay relative to control.
Test [4] addresses T2, Dual specificity tyrosine-phosphorylation-regulated kinase 4 (Homo sapiens) (UniProt Q9NR20).
T2 sequence (whole entry): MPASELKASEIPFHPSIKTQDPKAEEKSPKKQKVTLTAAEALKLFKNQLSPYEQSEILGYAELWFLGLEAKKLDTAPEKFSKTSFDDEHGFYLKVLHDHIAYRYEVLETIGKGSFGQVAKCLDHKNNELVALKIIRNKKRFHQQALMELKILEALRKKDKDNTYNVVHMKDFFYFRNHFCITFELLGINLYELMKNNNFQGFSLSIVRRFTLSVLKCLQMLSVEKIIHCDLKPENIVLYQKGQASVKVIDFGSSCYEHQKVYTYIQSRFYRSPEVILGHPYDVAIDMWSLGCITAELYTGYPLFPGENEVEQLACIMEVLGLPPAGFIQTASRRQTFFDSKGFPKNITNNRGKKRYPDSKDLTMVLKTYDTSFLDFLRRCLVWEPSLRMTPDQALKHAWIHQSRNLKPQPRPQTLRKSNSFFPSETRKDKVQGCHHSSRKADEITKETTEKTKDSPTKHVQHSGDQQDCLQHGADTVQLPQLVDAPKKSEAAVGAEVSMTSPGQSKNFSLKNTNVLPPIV
As to the kind of experiment: Inhibition of human DYRK4 assessed as enzyme activity at 1 uM using RRRFRPASPLRGPPK as substrate preincubated for 20 mins followed by [gamma-33P]-ATP addition and measured after 120 mins by radiometric Hot-SpotSM Kinase assay relative to control.

Test [5] concerns the target Inactive tyrosine-protein kinase PEAK1 (Homo sapiens) (UniProt Q9H792). The test is described as follows: Inhibition of human PEAK1 assessed as enzyme activity at 1 uM using poly[Glu:Tyr] (4:1) as substrate preincubated for 20 mins followed by [gamma-33P]-ATP addition and measured after 120 mins by radiometric Hot-SpotSM Kinase assay relative to control.
For test [6], the target named is T3, Megakaryocyte-associated tyrosine-protein kinase (Homo sapiens) (UniProt P42679).
T3 sequence (whole entry): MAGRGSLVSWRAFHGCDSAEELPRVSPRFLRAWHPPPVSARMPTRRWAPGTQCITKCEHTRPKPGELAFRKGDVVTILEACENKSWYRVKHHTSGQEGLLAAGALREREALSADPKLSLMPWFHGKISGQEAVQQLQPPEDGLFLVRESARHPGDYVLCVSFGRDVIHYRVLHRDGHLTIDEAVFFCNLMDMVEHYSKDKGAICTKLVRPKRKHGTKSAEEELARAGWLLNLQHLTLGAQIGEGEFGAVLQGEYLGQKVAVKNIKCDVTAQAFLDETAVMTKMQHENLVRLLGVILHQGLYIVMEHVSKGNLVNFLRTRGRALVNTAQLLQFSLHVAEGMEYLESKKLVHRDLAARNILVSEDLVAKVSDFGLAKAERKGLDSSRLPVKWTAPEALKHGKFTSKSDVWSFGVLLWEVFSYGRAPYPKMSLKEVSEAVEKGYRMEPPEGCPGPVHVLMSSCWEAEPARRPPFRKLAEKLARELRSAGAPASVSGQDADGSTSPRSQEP
As to the kind of experiment: Inhibition of human CTK/MATK assessed as enzyme activity at 1 uM using poly[Glu:Tyr] (4:1) as substrate preincubated for 20 mins followed by [gamma-33P]-ATP addition and measured after 120 mins by radiometric Hot-SpotSM Kinase assay relative to control.

Test [7] concerns the target T4, Protein kinase C epsilon type (Homo sapiens) (UniProt Q02156).
T4 sequence (whole entry): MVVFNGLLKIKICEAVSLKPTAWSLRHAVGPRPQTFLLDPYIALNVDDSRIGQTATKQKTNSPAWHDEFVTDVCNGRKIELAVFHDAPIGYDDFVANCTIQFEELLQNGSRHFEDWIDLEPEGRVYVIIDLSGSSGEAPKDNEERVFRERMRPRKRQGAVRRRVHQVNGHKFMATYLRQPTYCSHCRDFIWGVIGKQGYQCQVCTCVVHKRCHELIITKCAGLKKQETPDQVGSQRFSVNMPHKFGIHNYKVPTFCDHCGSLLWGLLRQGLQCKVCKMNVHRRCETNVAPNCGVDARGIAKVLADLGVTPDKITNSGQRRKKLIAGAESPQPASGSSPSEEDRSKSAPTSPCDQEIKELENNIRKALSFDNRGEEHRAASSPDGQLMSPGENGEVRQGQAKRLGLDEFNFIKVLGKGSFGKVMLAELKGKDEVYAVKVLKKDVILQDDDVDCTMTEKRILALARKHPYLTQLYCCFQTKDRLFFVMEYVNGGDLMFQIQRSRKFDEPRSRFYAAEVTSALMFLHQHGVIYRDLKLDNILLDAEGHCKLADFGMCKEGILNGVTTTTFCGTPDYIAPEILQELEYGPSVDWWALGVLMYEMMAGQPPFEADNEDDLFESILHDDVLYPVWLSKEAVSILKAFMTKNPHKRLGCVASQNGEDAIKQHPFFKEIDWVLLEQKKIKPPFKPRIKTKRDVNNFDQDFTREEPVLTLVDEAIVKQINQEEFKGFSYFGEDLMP
As to the kind of experiment: Inhibition of human PKCepsilon assessed as enzyme activity at 1 uM using ERMRPRKRQGSVRRRV as substrate preincubated for 20 mins followed by [gamma-33P]-ATP addition and measured after 120 mins by radiometric Hot-SpotSM Kinase assay relative to control.

Sequence of Calcium/calmodulin-dependent protein kinase type 1 (Homo sapiens) (Q14012 whole entry, looked up): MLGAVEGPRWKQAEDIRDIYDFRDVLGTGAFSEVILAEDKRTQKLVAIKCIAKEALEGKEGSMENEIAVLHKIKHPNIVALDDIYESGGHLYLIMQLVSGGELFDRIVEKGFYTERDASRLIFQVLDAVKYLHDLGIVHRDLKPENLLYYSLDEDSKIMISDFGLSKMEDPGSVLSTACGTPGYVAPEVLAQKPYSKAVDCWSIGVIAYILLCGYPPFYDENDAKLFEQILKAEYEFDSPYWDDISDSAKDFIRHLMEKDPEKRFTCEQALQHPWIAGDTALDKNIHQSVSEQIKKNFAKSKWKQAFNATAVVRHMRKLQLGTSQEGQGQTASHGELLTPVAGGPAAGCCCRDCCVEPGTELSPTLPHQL
Sequence of LIM domain kinase 1 (Homo sapiens) (P53667 whole entry, looked up, the tested form may be a part): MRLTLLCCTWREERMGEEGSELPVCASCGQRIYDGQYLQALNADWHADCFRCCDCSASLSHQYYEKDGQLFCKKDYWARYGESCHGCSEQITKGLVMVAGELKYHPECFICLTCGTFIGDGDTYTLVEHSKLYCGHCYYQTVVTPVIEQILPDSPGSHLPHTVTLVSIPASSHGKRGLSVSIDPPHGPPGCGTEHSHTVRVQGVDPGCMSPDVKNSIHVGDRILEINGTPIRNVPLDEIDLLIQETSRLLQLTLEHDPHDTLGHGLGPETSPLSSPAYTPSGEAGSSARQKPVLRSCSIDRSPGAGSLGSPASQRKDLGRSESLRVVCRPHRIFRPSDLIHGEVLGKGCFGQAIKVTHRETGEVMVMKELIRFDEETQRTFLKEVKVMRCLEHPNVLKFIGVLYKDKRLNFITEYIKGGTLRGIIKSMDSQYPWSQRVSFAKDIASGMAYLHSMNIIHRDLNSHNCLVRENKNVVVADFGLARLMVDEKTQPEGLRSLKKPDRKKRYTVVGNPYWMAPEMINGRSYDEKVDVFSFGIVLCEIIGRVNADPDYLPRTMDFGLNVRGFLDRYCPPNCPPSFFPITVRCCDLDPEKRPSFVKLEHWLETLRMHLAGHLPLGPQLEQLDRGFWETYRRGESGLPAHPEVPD
Sequence of Inactive tyrosine-protein kinase PEAK1 (Homo sapiens) (Q9H792 whole entry): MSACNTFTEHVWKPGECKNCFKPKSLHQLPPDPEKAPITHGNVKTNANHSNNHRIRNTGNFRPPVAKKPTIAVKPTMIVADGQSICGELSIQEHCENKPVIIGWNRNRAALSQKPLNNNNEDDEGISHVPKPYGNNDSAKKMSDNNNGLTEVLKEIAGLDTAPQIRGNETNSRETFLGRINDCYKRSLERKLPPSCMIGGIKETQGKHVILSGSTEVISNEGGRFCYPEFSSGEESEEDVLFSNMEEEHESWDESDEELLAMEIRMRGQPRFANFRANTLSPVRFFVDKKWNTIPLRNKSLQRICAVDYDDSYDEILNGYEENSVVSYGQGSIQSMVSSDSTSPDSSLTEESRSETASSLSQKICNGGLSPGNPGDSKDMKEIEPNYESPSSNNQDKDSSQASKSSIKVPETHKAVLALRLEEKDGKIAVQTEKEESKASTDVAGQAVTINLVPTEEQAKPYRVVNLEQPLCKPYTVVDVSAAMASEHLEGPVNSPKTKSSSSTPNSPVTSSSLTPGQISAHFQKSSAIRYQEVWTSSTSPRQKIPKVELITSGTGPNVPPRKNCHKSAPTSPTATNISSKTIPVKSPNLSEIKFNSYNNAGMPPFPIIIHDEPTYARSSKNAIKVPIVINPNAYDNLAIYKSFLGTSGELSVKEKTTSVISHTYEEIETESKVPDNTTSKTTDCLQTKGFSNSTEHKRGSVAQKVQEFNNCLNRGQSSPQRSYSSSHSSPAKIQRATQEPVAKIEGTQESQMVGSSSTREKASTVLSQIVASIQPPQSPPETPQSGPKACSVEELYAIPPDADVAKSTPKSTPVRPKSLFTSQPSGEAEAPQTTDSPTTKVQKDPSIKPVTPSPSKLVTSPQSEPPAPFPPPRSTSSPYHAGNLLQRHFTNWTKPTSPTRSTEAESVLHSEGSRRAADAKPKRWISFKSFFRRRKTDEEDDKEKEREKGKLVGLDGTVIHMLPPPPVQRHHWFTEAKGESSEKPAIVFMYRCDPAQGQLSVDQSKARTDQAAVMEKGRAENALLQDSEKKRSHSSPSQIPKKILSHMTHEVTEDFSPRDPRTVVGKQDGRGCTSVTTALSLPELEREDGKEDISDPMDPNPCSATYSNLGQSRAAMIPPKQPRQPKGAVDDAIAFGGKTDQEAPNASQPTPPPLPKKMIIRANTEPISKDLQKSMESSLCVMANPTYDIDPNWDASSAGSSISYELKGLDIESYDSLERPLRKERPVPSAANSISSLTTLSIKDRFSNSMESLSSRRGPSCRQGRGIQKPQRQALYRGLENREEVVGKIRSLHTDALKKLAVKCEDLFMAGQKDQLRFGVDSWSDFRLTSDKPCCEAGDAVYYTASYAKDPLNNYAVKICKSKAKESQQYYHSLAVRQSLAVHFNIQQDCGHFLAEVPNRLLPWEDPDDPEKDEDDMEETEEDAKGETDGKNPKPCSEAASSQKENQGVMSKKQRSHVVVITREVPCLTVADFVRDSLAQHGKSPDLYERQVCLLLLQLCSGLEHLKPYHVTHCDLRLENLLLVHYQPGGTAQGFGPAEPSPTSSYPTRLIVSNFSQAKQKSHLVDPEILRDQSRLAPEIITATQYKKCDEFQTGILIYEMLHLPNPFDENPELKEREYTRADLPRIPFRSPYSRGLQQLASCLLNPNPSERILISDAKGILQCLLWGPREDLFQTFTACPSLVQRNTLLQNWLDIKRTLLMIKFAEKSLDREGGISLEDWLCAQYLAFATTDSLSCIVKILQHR

In the case of `C[C@H](Nc1ncnc2nc[nH]c12)c1cc2cccc(Cl)c2c(=O)n1-c1ccccc1`, the Activity in test [1] is 86.2%; in test [2] it was 90%; in test [3] it was 103%; in test [4] it was 97.1%; in test [5], 89.4%; in test [6], 105%. For the same compound, in test [7], the Activity stood at 107%.

With `CC[C@H](Nc1ncnc2[nH]cnc12)c1nc2cccc(F)c2c(=O)n1-c1ccccc1`, the Activity in test [1] amounted to 87.2%; in test [2], 87.3%; in test [3], 96.8%; in test [4] it was 100%; in test [5], 93.3%; in test [6], 105%. In test [7], the Activity came to 108%.

With `CC(C)Oc1ccc(-c2nn([C@@H](C)c3oc4ccc(F)cc4c(=O)c3-c3cccc(F)c3)c3ncnc(N)c23)cc1F` [UMBRALISIB], the Activity in test [1] is 87.8%; in test [2], 96.7%; in test [3] it was 99.6%; in test [4] it was 98.8%; in test [5] it was 95%; in test [6] it was 106%. In addition, in test [7], the Activity came to 109%.

Values taken from ChEMBL document CHEMBL5715954, “Silencing c-Myc translation as a therapeutic strategy through targeting PI3Kδ and CK1ε in hematological malignancies” (Blood, 2017).
